We go through 17 molecules from US11345666B2, “Phenyl and pyridinyl substituted imidazoles as modulators of RORγT” (Janssen Pharmaceutica NV, priority 2018, dated 2022).

Read-outs that look alike come from different tables or passages of the source.

Assay [1] concerns the target human RORγt ligand binding domain (RORγt LBD) (Homo sapiens (Human), UniProt P51449). The assay is described as follows: RORγt ThermoFluor assay. A digest of the protocol:
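Thermal shift of His-tagged human RORγt LBD (0.065 mg/mL) with 60 μM 1,8-ANS in 100 mM Hepes pH 7.0, 10 mM NaCl, 2.5 mM GSH, 0.002% Tween-20, heated at 1° C./min. Compounds in 1:2 series from a 10 mM DMSO stock; KD estimated from ΔTm using protein unfolding thermodynamics.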
Background: DSF heats the sample and reads unfolding from a dye or from intrinsic fluorescence.

Another assay concerns the target full-length human RORγt (Homo sapiens (Human), UniProt P51449). Nature of the assay: RORγt (full-length human) reporter assay, conditions A or B. It is filed as cell-based. As to conditions: for inhibition at 2 µM: 2 μM compound concentration (**); for IC50: HEK293T cells, read-out: RORγt (FL) Reporter Assay A or B, IC50; for inhibition at 6 µM: read-out: RORγt (FL) Reporter Assay A or B, % inhibition @ 6 μM, 6 μM compound concentration. An outline of the steps:
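HEK293T cells transiently co-transfected (PEI) with GAL4-DBD–RORγt, GAL4-firefly luciferase and CMV-Renilla reporters; condition A 35,000 cells/well, 170.5 ng DNA/well; condition B 8750 cells/well, 42.6 ng DNA/well.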
For orientation: A reporter such as luciferase makes a cellular process visible.

Where [2] appears, read: read-out: RORγt (FL) Reporter Assay A or B, % inhibition.
The mark [3] stands for this setting: 3 μM compound concentration (*), read-out: RORγt (FL) Reporter Assay A or B, % inhibition.

Chain of full-length human RORγt (P51449 other isoform, or with tags, fused parts or gaps): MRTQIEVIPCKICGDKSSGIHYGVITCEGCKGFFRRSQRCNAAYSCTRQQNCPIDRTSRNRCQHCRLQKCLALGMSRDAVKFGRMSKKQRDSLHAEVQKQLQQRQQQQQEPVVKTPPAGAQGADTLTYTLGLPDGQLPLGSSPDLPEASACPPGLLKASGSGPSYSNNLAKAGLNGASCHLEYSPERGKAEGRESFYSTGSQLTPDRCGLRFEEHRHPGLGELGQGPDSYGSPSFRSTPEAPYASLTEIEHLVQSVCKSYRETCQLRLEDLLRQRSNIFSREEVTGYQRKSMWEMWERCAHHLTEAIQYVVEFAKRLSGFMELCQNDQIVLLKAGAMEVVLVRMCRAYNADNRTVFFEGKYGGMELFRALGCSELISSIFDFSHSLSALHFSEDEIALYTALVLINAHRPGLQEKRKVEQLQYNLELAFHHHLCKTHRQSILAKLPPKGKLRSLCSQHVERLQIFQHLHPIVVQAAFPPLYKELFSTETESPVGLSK
Chain of human RORγt ligand binding domain (RORγt LBD) (P51449 other isoform, or with tags, fused parts or gaps): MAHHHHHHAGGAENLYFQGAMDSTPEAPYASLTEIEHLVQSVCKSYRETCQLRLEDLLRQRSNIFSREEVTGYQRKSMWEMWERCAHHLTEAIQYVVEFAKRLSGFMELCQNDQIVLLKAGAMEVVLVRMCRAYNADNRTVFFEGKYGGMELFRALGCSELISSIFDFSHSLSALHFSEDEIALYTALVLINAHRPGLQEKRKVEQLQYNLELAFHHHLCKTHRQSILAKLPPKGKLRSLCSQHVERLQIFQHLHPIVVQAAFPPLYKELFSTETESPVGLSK

Take `CCc1nc(C(=O)NC[C@H]2CC[C@H](S(C)(=O)=O)CC2)cn1-c1ccc(C[C@@H](C)C(F)(F)F)cc1OC` (single isomer, unassigned) [Example 18, 2-Ethyl-1-(2-methoxy-4-((R*)-3,3,3-trifluoro-2-methylpropyl)phenyl)-N-(((1r,4R)-4-(methylsulfonyl)cyclohexyl)methyl)-1H-imidazole-4-carboxamide]: the Kd in assay [1] came to 28 nM. In addition, on full-length human RORγt (setting [2]), the inhibition at 2 µM worked out at 93%. Moreover, at full-length human RORγt, the IC50 was found to be 230 nM.

Turning to `CCc1nc(C(=O)NC[C@H]2CC[C@H](S(C)(=O)=O)CC2)c(C#N)n1-c1ccc(CC(C)(C)C(F)(F)F)cc1OC(F)(F)F` [Example 113, 5-Cyano-2-ethyl-N-(((1r,4r)-4-(methylsulfonyl)cyclohexyl)methyl)-1-(4-(3,3,3-trifluoro-2,2-dimethylpropyl)-2-(trifluoromethoxy)phenyl)-1H-imidazole-4-carboxamide], the Kd in assay [1] was 8.3 nM. In addition, the inhibition at 2 µM at full-length human RORγt (setting [2]) came out at 88%. In addition, the IC50 on full-length human RORγt is 44 nM.

In assay [1], `[2H]C([2H])([2H])Oc1cc(CCC(F)(F)F)ccc1-n1c(CC)nc(C(=O)NC[C@]2(O)CC[C@@H](S(C)(=O)=O)CC2)c1C#N` [Example 30, 5-Cyano-2-ethyl-N-(((1s,4s)-1-hydroxy-4-(methylsulfonyl)cyclohexyl)methyl)-1-(2-(methoxy-d3)-4-(3,3,3-trifluoropropyl)phenyl)-1H-imidazole-4-carboxamide] yielded a Kd of 44 nM. On full-length human RORγt, the IC50 was found to be 320 nM and the inhibition at 6 µM was determined as 96%.

The molecule `[2H]C([2H])([2H])Oc1cc(CC(C)(C)C(F)(F)F)ccc1-n1c(CC)nc(C(=O)NC[C@]2(C#N)CC[C@@H](S(C)(=O)=O)CC2)c1F` [Example 31, N-(((1s*,4s*)-1-Cyano-4-(methylsulfonyl)cyclohexyl)methyl)-2-ethyl-5-fluoro-1-(2-(methoxy-d3)-4-(3,3,3-trifluoro-2,2-dimethylpropyl)phenyl)-1H-imidazole-4-carboxamide] returned a Kd in assay [1] of 14 nM. The inhibition at 2 µM on full-length human RORγt (setting [2]) worked out at 101%. Further, on full-length human RORγt, the IC50 was 78 nM.

For `CCc1nc(C(=O)NC[C@H]2CC[C@H](S(C)(=O)=O)CC2)c(C)n1-c1ncc(CCCC(F)(F)F)cc1OC(F)F` [Example 51, 1-(3-(Difluoromethoxy)-5-(4,4,4-trifluorobutyl)pyridin-2-yl)-2-ethyl-5-methyl-N-(((1r,4r)-4-(methylsulfonyl)cyclohexyl)methyl)-1H-imidazole-4-carboxamide], the Kd in assay [1] amounted to 120 nM. At full-length human RORγt, the half-maximal inhibitory concentration (IC50) amounted to 140 nM and the inhibition at 6 µM was found to be 84%.

Molecule `CCc1nc(C(=O)NC[C@]2(C#N)CC[C@@H](S(C)(=O)=O)CC2)c(C#N)n1-c1ncc(CCC(F)(F)F)cc1OC` [Example 121, 5-Cyano-N-(((1s*,4s*)-1-cyano-4-(methylsulfonyl)cyclohexyl)methyl)-2-ethyl-1-(3-methoxy-5-(3,3,3-trifluoropropyl)pyridin-2-yl)-1H-imidazole-4-carboxamide] displayed a Kd in assay [1] of 300 nM. Moreover, at full-length human RORγt, the IC50 was 1700 nM and the inhibition at 6 µM came to 76%.

`Cc1nc(C(=O)NC[C@H]2CC[C@H](S(C)(=O)=O)C[C@@H]2O)c(C#N)n1-c1ccc(CC(C)(C)C(F)(F)F)cc1OC(F)F` (single isomer, unassigned) [Example 56, 5-Cyano-1-(2-(difluoromethoxy)-4-(3,3,3-trifluoro-2,2-dimethylpropyl)phenyl)-N-(((1R*,2S*,4S*)-2-hydroxy-4-(methylsulfonyl)cyclohexyl)methyl)-2-methyl-1H-imidazole-4-carboxamide] had a Kd in assay [1] of 32 nM. The half-inhibitory concentration (IC50) at full-length human RORγt was 63 nM. Moreover, the inhibition at 3 µM on full-length human RORγt (read-out: RORγt (FL) Reporter Assay A or B, % inhibition, 3 μM compound concentration (*)) turned out to be 102%.

`CCc1nc(C(=O)NC[C@H]2CC[C@H](S(C)(=O)=O)CC2)c(Cl)n1-c1ncc(CC(C)(C)C(F)(F)F)cc1C` [Example 74, 5-Chloro-2-ethyl-1-(3-methyl-5-(3,3,3-trifluoro-2,2-dimethylpropyl)pyridin-2-yl)-N-(((1r,4r)-4-(methylsulfonyl)cyclohexyl)methyl)-1H-imidazole-4-carboxamide] had a Kd in assay [1] of 34 nM. Moreover, the inhibition at 3 µM at full-length human RORγt (setting [3]) stood at 116%. The IC50 on full-length human RORγt amounted to 92 nM.

`CCc1nc(C(=O)NC[C@H]2CC[C@H](S(C)(=O)=O)CC2)c(C)n1-c1ncc(C[C@H](C)C(F)(F)F)cc1OC(F)F` (single isomer, unassigned) [Example 73, 1-(3-(Difluoromethoxy)-5-((S*)-3,3,3-trifluoro-2-methylpropyl)pyridin-2-yl)-2-ethyl-5-methyl-N-(((1r,4S)-4-(methylsulfonyl)cyclohexyl)methyl)-1H-imidazole-4-carboxamide] returned a Kd in assay [1] of 38 nM. In addition, at full-length human RORγt (1 μM compound concentration (***), read-out: RORγt (FL) Reporter Assay A or B, % inhibition), the inhibition at 1 µM came to 80%. Also, at full-length human RORγt, the IC50 was 110 nM.

Turning to `CCc1nc(C(=O)NC[C@@]2(O)CC[C@H](S(C)(=O)=O)C[C@@H]2O)c(Cl)n1-c1ncc(CC(C(F)(F)F)C(F)(F)F)cc1OC(F)F` (stereo in doubt) [Example 66, 5-Chloro-1-(3-(difluoromethoxy)-5-(3,3,3-trifluoro-2-(trifluoromethyl)propyl)pyridin-2-yl)-N-(((1S*,2S*,4S*)-1,2-dihydroxy-4-(methylsulfonyl)cyclohexyl)methyl)-2-ethyl-1H-imidazole-4-carboxamide], the Kd in assay [1] is 73 nM. On full-length human RORγt (setting [3]), the inhibition at 3 µM is 70%. At full-length human RORγt, the IC50 worked out at 790 nM.

In assay [1], `CCc1nc(C(=O)NC[C@@]2(O)CC[C@H](S(C)(=O)=O)C[C@@H]2O)c(Cl)n1-c1ncc(CC(C)(C)C(F)(F)F)cc1OC(F)F` (stereo in doubt) [Example 61, 5-Chloro-1-(3-(difluoromethoxy)-5-(3,3,3-trifluoro-2,2-dimethylpropyl)pyridin-2-yl)-N-(((1S*,2S*,4S*)-1,2-dihydroxy-4-(methylsulfonyl)cyclohexyl)methyl)-2-ethyl-1H-imidazole-4-carboxamide] came in with a Kd of 46 nM. Besides, the inhibition at 3 µM on full-length human RORγt (setting [3]) was 90%. Further, the IC50 on full-length human RORγt came to 110 nM.

In turn, `CCc1nc(C(=O)NC[C@]2(O)CC[C@@H](S(C)(=O)=O)CC2)c(C#N)n1-c1ccc(CCC(F)(F)F)cc1F` [Example 95, 5-Cyano-2-ethyl-1-(2-fluoro-4-(3,3,3-trifluoropropyl)phenyl)-N-(((1s,4s)-1-hydroxy-4-(methylsulfonyl)cyclohexyl)methyl)-1H-imidazole-4-carboxamide] gave a Kd in assay [1] of 290 nM. Also, at full-length human RORγt, the IC50 was 1200 nM and the inhibition at 6 µM was 72%.

In the case of `CCc1nc(C(=O)NC[C@]2(O)CC[C@@H](S(C)(=O)=O)CC2)c(C(N)=O)n1-c1ccc(CC(C)(C)C(F)(F)F)cc1OC(F)(F)F` [Example 112, 2-Ethyl-N^4-(((1s,4s)-1-hydroxy-4-(methylsulfonyl)cyclohexyl)methyl)-1-(4-(3,3,3-trifluoro-2,2-dimethylpropyl)-2-(trifluoromethoxy)phenyl)-1H-imidazole-4,5-dicarboxamide], in assay [1], the Kd came out at 1.9 nM. Also, on full-length human RORγt (setting [2]), the inhibition at 2 µM came out at 89%. Also, the IC50 on full-length human RORγt was found to be 17 nM.

The molecule `CCc1nc(C(=O)NC[C@]2(O)CC[C@@H](S(C)(=O)=O)CC2)c(Cl)n1-c1ccc(CC(C)(C)C(F)(F)F)cc1F` [Example 102, 5-Chloro-2-ethyl-1-(2-fluoro-4-(3,3,3-trifluoro-2,2-dimethylpropyl)phenyl)-N-(((1s,4s)-1-hydroxy-4-(methylsulfonyl)cyclohexyl)methyl)-1H-imidazole-4-carboxamide] yielded a dissociation constant Kd in assay [1] of 8 nM. Moreover, the inhibition at 0.67 µM on full-length human RORγt (0.67 μM compound concentration (****), read-out: RORγt (FL) Reporter Assay A or B, % inhibition) is 74%. Besides, at full-length human RORγt, the IC50 was 36 nM.

In assay [1], `CCc1nc(C(=O)NC[C@H]2CC[C@H](S(C)(=O)=O)CC2)c(C)n1-c1ncc(CC(C(F)(F)F)C(F)(F)F)cc1OC(F)F` [Example 77, 1-(3-(Difluoromethoxy)-5-(3,3,3-trifluoro-2-(trifluoromethyl)propyl)pyridin-2-yl)-2-ethyl-5-methyl-N-(((1r,4r)-4-(methylsulfonyl)cyclohexyl)methyl)-1H-imidazole-4-carboxamide] showed a dissociation constant Kd of 20 nM. Moreover, the inhibition at 3 µM on full-length human RORγt (setting [3]) amounted to 101%. Besides, the IC50 on full-length human RORγt turned out to be 77 nM.

For the molecule `Cc1nc(C(=O)NC[C@H]2CC[C@H](S(C)(=O)=O)CC2)c(C#N)n1-c1ccc(CC(C)(C)C(F)(F)F)cc1OC(F)F` [Example 53, 5-Cyano-1-(2-(difluoromethoxy)-4-(3,3,3-trifluoro-2,2-dimethylpropyl)phenyl)-2-methyl-N-(((1r,4r)-4-(methylsulfonyl)cyclohexyl)methyl)-1H-imidazole-4-carboxamide], the Kd in assay [1] is 2.5 nM. Also, on full-length human RORγt (setting [3]), the inhibition at 3 µM was determined as 84%. Besides, at full-length human RORγt, the IC50 turned out to be 11 nM.

As to `COc1cc(N[C@H](C)C(F)(F)F)ccc1-n1c(CC(C)C)nc(C(=O)NC[C@H]2CC[C@H](S(C)(=O)=O)CC2)c1Cl` [Example 9, 5-Chloro-2-isobutyl-1-(2-methoxy-4-(((R)-1,1,1-trifluoropropan-2-yl)amino)phenyl)-N-(((1r,4R)-4-(methylsulfonyl)cyclohexyl)methyl)-1H-imidazole-4-carboxamide], binding in assay [1] was put at a Kd of 2.6 nM. At full-length human RORγt, the IC50 was 35 nM and the inhibition at 6 µM turned out to be 101%.

The Kd is a measure of binding affinity in units of concentration. High values mean weaker binding, low ones tighter binding. What is called IC50 is the midpoint of a concentration-inhibition curve.
